Patent US9422396B2, “Biodegradable elastomers prepared by the condensation of an organic di-, tri- or tetra-carboxylic acid and an organic diol” (QATAR UNIVERSITY, priority 2007, dated 2016)

Legend:
[1] = Stability of pilocarpine nitrate in the release medium; format: physicochemical; conditions: over a period of one week
Method: Before running the release studies, the stability of PCN in the release medium was tested by monitoring the changes in the concentration of a prepared stock solution of PCN in each of them over a period of one week.

[2] = In vitro hydrolytic degradation of poly(diol-tricarballylate) elastomers in PBS (pH 7.4); format: physicochemical
Method: In order to examine the influence of chain length on the degradation rate and the changes in the mechanical properties of the elastomer during the in vitro degradation, four different elastomers, based on varying chain lengths of alkylene diol (C6-C12), were prepared and tested. FIGS. 21a and 21b show the weight loss and water absorption data for the four prepared elastomers.
Young's modulus (E) and the ultimate tensile stress (σ) decreased in a nearly linear fashion with time as indicative of zero-order degradation mechanism. This linear decrease was observed regardless of the network compositions, the crosslinking density and the initial E and σ of the elastomers. […] No significant change in the ultimate elongation was found up to 12 weeks of the in vitro degradation time. […] It is only with surface erosion degradation pattern that the elastomers can maintain their mechanical properties unchanged^41. […] The above observations illustrates that the changes in the mechanical properties of these networks took place in two stages. The first stage was characterized by a rapid mechanical weakening (rapid decrease in E and a) which lasted for up to 4 weeks. […] This is in correlation with the trend noted for the weight loss and water absorption reported above (FIG. 21).
Through a linear regression of the zero-order degradation kinetics of the data in FIGS. 23a and 23b using equations (1) & (2), the rate constants were calculated and are listed in Table 1. Et=E0−KEt. (1) σt=σ0−Kσt. (2) In equations 1 & 2, t denoted the immersion time (in weeks) in PBS. The values of E0 and σ0 corresponded to the intercepts obtained from extrapolating the zero-order fitted line. Kσ and KE represented the zero-order degradation constants for […].

| Compound | Change in concentration of stock solution in the release medium [1] | KE (zero-order degradation constant, Young's modulus) [2] [MPa/week] | Kσ (zero-order degradation constant, ultimate tensile stress) [2] [MPa/week] |
| --- | --- | --- | --- |
| CC[C@@H]1C(=O)OC[C@@H]1Cc1cncn1C [PN, Pilocarpine Nitrate] | no significant changes from its initial concentration |  |  |
| poly(1,8 octane diol-co-tricarballylate) [POTC] |  | 0.0301 | 0.0124 |
| poly(1,10 decane diol-co-tricarballylate) [PDTC] |  | 0.0237 | 0.0114 |
| poly(1,12 dodecane diol-co-tricarballylate) [PDDTC] |  | 0.0080 | 0.0018 |
